Results reported in patent publication US11213567B2, “ZAG-derived peptide and use thereof” (L&C Bio Co., LTD., priority 2017, dated 2022).

B1: Z0: ZAG protein, entire sequence of 298 amino acids (GenBank: AAH05306.1; SEQ ID NO: 19) (protein, listed as Homo sapiens)
chain: MVRMVPVLLSLLLLLGPAVPQENQDGRYSLTYIYTGLSKHVEDVPAFQALGSLNDLQFFRYNSKDRKSQPMGLWRQVEGMEDWKQDSQLQKAREDIFMETLKDIVEYYNDSNGSHVLQGRFGCEIENNRSSGAFWKYYYDGKDYIEFNKEIPAWVPFDPAAQITKQKWEAEPVYVQRAKAYLEEECPATLRKYLKYSKNILDRQDPPSVVVTSHQAPGEKKKLKCLAYDFYPGKIDVHWTRAGEVQEPELRGDVLHNGNGTYQSWVVVAVPPQDTAPYSCHVQHSSLAQPLVVPWEAS

How the values were obtained:
[1] = system: IL-6; assay: Atopic dermatitis efficacy test using macrophages (RAW 264.7): IL-6 released after LPS, ELISA; assay type: cell-based, mouse; design: key to RAW 264.7 (mouse) IL-6: •: have statistical significance, determining as effective, compared with the positive control; conditions: for IL-6 concentration released in cell culture medium: Example 2-1, FIG. 2A, RAW 264.7, 1 μg/mL 24 hours, LPS 0.1 μg/mL 24 hours, compared with positive control (Pos); for RAW 264.7 (mouse) IL-6: 1 μg/mL for 24 hours, then LPS 0.1 μg/mL 24 hours
Description: (§1) To select an amino acid sequence corresponding to a key active site of ZAG having efficacy in the alleviation of atopic symptoms from 18 peptide candidate groups, an atopic dermatitis efficacy test was performed. Five types of immune-related cells were treated with ZAG peptide candidate groups (Z1-Z18, SEQ ID NOs: 1 to 18, respectively) and the ZAG protein (Z0, SEQ ID NOs: 19) at a concentration of 1 μg/mL for 24 hours, and then treated with a stimulator suitable for each cell line for the listed time to confirm an immune response. The experiment was performed with a group treated with only a stimulator as a positive control experimental group, and a group treated with only a vehicle without a stimulator as a negative control experimental group (Table 2: Efficacy test method for atopic dermatitis). An inflammatory response-related enzyme used as a stimulator is produced by immune cells, and histamine initiates an inflammatory response. The immune cells migrating to a damaged region release cytokines such as tumor necrosis factor-α (TNF-α) and interleukin-6 (IL-6) to directly lyse foreign invasive substances or collect other immune cells to initiate an inflammatory response. An efficacy test using inflammation-inducing materials, interferon-γ and skin inflammation-related factor CCL-17/thymus- and activation-regulated chemokine (TARC) was also performed to confirm an immune response.
Macrophages (RAW 264.7 cells) were treated with a stimulator LPS at a concentration of 0.1 μg/mL for 24 hours, and then the concentration of IL-6 released in a cell culture medium was confirmed by ELISA assay.
(§2) Various types of immune cells were treated with each of Z20mer-1, Z20mer-2, Z20mer-3, Z15mer-1, Z15mer-2, Z15mer-3 and Z15mer-4 at a concentration of 1 μg/mL for 24 hours, and then treated with a stimulator suitable for each cell line for the listed time to confirm an immune response. The atopic dermatitis efficacy test method was performed by the same method as described in Example 1 and Table 2.
(§3) The experiment was performed with experimental groups: 1) negative control: vehicle-treated group (Neg), 2) positive control: a group treated with only a stimulator (Pos), and 3) experimental group: groups treated with a stimulator and ZAG3 or a ZAG3-derived oligopeptide (Z20mer-1, Z20mer-2, Z20mer-3, Z15mer-1, Z15mer-2, Z15mer-3 or Z15mer-4). Concentrations were measured from cell culture by ELISA.
Macrophages (RAW 264.7 cells) were treated with a stimulator LPS at a concentration of 0.1 μg/mL for 24 hours, and then a concentration of IL-6 released in a cell culture medium was confirmed by ELISA assay.

[2] = system: Histamine; assay: Atopic dermatitis efficacy test using mast cells (RBL-2H3): histamine released after PMA and A23187, ELISA; assay type: cell-based, rat; design: key: •: have statistical significance, determining as effective, compared with the positive control; conditions: 1 μg/mL for 24 hours, then PMA 1 μg/mL, A23187 1 μg/mL 12 hours
Description: as §1
Mast cells (RBL-2H3) were treated with 1 μg/mL of PMA and 1 μg/mL of A23187 as stimulators for 12 hours, and a concentration of histamine released in a cell culture medium was confirmed by ELISA assay.
as §2, §3
Mast cells (RBL-2H3) were treated with 1 μg/mL of PMA and 1 μg/mL of A23187 as simulators for 12 hours, and then a concentration of histamine released in a cell culture medium was confirmed by ELISA assay. As compared with the positive control (Pos), in all of the oligopeptide-treated groups, the histamine release was reduced (FIG. 2B).

[3] = system: CCL17/TARC; assay: Atopic dermatitis efficacy test using keratinocytes (HaCaT): CCL17/TARC released after TNF-α and IFN-γ, ELISA; assay type: cell-based, human; design: key to HaCaT (human) CCL17/TARC: •: have statistical significance, determining as effective, compared with the positive control; conditions: for CCL17/TARC concentration released in cell culture medium: Example 2-3, FIG. 2C, HaCaT, 1 μg/mL 24 hours, TNF-α 0.4 μg/mL and IFN-γ 0.4 μg/mL 24 hours, compared with positive control (Pos); for HaCaT (human) CCL17/TARC: 1 μg/mL for 24 hours, then TNF-α 0.4 μg/mL, IFN-γ 0.4 μg/mL 24 hours
Description: as §1
Keratinocytes (HaCaT cells) were treated with 0.4 μg/mL of TNF-α and 0.4 μg/mL of IFN-γ as stimulators for 24 hours, and then a concentration of CCL17/TARC released in a cell culture medium was confirmed by ELISA assay.
as §2, §3

[4] = system: IgE; assay: Atopic dermatitis efficacy test using B lymphocytes (RPMI 1788): IgE released after LPS, ELISA; assay type: cell-based, human; design: key: •: have statistical significance, determining as effective, compared with the positive control; conditions: then LPS 0.1 μg/mL 24 hours
Description: as §1
(§4) B lymphocytes (RPMI 1788) were treated with 0.1 μg/mL of LPS as a stimulator for 24 hours, and a concentration of IgE released in a cell culture medium was confirmed by ELISA assay.
as §2, §3
as §4, with “and then” for “and”, “assay. As compared with the positive control (Pos), in all of the oligopeptide-treated groups, IgE was reduced (FIG. 2D).” for “assay.”

[5] = system: IL-4; assay: Atopic dermatitis efficacy test using T lymphocytes: IL-4 released after IL-2, ELISA; assay type: cell-based, human; design: key to T lymphocyte (human) IL-4: •: have statistical significance, determining as effective, compared with the positive control; conditions: for IL-4 concentration released in cell culture medium: Example 1-5, FIG. 1E, IL-2 50 ng/mL 12 hours; for IL-4 concentration released in cell culture medium / IL-4: T lymphocytes, 1 μg/mL 24 hours; for T lymphocyte (human) IL-4: 1 μg/mL for 24 hours, then IL-2 50 ng/mL 12 hours; for IL-4: Example 2-5, FIG. 2E, compared with positive control (Pos)
Description: as §1
An atopic dermatitis efficacy test using T lymphocytes was performed with six peptide candidate groups (Z3, Z4, Z5, Z12, Z14, and Z15), which were determined to have efficacy from the results of Examples 1-1 to 1-4 described above. T lymphocytes were treated with 50 ng/mL of IL-2 as a stimulator for 12 hours, and a concentration of IL-4 released in a cell culture medium was confirmed by ELISA assay.
as §2, §3
An experiment was performed on T lymphocytes using the target peptides selected through the previous experiment. As compared with the positive control (Pos), in all of the oligopeptide-treated groups (Z20mer-1, Z20mer-2, Z20mer-3, Z15mer-1, Z15mer-2, Z15mer-3, and Z15mer-4), IL-4 was reduced (FIG. 2E).

[6] = Table 3, 1 μg/mL for 24 hours, vs stimulator only
[7] = Table 5, 1 μg/mL for 24 hours, vs positive control

Row | Molecule | IL-6 concentration released in cell culture medium [1] | RAW 264.7 (mouse) IL-6 ([1]; Table 3, vs stimulator only) | RBL-2H3 (rat) Histamine ([2]; Table 3, vs stimulator only) | CCL17/TARC concentration released in cell culture medium [3] | HaCaT (human) CCL17/TARC ([3]; Table 3, vs stimulator only) | B lymphocyte (human) IgE [4, 6] | IL-4 concentration released in cell culture medium [5] | T lymphocyte (human) IL-4 ([5]; Table 3, vs stimulator only) | RAW 264.7 (mouse) IL-6 ([1]; Table 5, vs positive control) | RBL-2H3 (rat) Histamine ([2]; Table 5, vs positive control) | HaCaT (human) CCL17/TARC ([3]; Table 5, vs positive control) | B lymphocyte (human) IgE [4, 7] | IL-4 [5] | T lymphocyte (human) IL-4 ([5]; Table 5, vs positive control)
1 | Z3: ZAG protein-derived peptide, SEQ ID NO. 3: EDWKQDSQLQKAREDIFMETLKDIVEYYND (ZAG protein-derived peptide) | significantly decreased | • | • | significantly decreased | • | • | significantly decreased | • | – | – | – | – | – | –
2 | Z4: ZAG protein-derived peptide, SEQ ID NO. 4: SNGSHVLQGRFGCEIENNRSSGAFWKYYYD (ZAG protein-derived peptide) | – | • | • | – | • | • | significantly decreased | • | – | – | – | – | – | –
3 | Z5: ZAG protein-derived peptide, SEQ ID NO. 5: GKDYIEFNKEIPAWVPFDPAAQITKQKWEA (ZAG protein-derived peptide) | – | • | • | – | • | • | significantly decreased | • | – | – | – | – | – | –
4 | Z6: ZAG protein-derived peptide, SEQ ID NO. 6: EPVYVQRAKAYLEEECPATLRKYLKYSKNI (ZAG protein-derived peptide) | – | • | • | – | • | • | – | – | – | – | – | – | – | –
5 | Z7: ZAG protein-derived peptide, SEQ ID NO. 7: LDRQDPPSVVVTSHQAPGEKKKLKCLAYDF (ZAG protein-derived peptide) | – | • | • | – | • | • | – | – | – | – | – | – | – | –
6 | Z8: ZAG protein-derived peptide, SEQ ID NO. 8: YPGKIDVHWTRAGEVQEPELRGDVLHNGNG (ZAG protein-derived peptide) | – | • | • | – | • | • | – | – | – | – | – | – | – | –
7 | Z14: ZAG protein-derived peptide, SEQ ID NO. 14: IFMETLKDIVEYYNDSNGSHVLQGRFGCEI (ZAG protein-derived peptide) | – | • | • | – | • | • | significantly decreased | • | – | – | – | – | – | –
8 | Z15mer-3: ZAG3-derived oligopeptide, SEQ ID NO. 25: KAREDIFMETLKDIV (ZAG protein-derived peptide) | significantly decreased | – | – | significantly decreased | – | – | – | – | • | • | • | • | reduced | •
9 | Z15mer-4: ZAG3-derived oligopeptide, SEQ ID NO. 26: IFMETLKDIVEYYND (ZAG protein-derived peptide) | significantly decreased | – | – | significantly decreased | – | – | – | – | • | • | • | • | reduced | •
10 | Z18: ZAG protein-derived peptide, SEQ ID NO. 18: AVPPQDTAPYSCHVQHSSLAQPLVVPWEAS (ZAG protein-derived peptide) | – | – | • | – | • | • | – | – | – | – | – | – | – | –
11 | Z20mer-1: ZAG3-derived oligopeptide, SEQ ID NO. 20: EDWKQDSQLQKAREDIFMET (ZAG protein-derived peptide) | – | – | – | significantly decreased | – | – | – | – | – | • | • | • | reduced | •
12 | B1 | – | • | • | – | • | • | – | • | – | – | – | – | – | –
